Data published in ChEMBL document CHEMBL1201862, “PubChem BioAssay data set” (2004).
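Tested at 5 concentrations; 48 h exposure; 96-well plates; endpoints linearly interpolated, else capped at highest concentration. The concentration for 50% growth inhibition is given as GI50.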 Active and inactive are the calls of the source. Cut-off read from the data, not from the text of the source: active = GI50 up to about 1.1 µM and inactive = higher.

Tests used:
Test in all cases: NCI anticancer screen, dose series, 48 h
786-0 = test system: 786-0
A498 = test system: A498
A549 = test system: A549
ACHN = test system: ACHN
BT-549 = test system: BT-549
CAKI-1 = test system: CAKI-1
CCRF-CEM = test system: CCRF-CEM
COLO 205 = test system: COLO 205
DU-145 = test system: DU-145
EKVX = test system: EKVX
HCT-116 = test system: HCT-116
HCT-15 = test system: HCT-15
HL-60 = test system: HL-60
HOP-62 = test system: HOP-62
HOP-92 = test system: HOP-92
HT-29 = test system: HT-29
Hs-578T = test system: Hs-578T
IGROV-1 = test system: IGROV-1
K562 = test system: K562
KM12 = test system: KM12
LOX IMVI = test system: LOX IMVI
M14 = test system: M14
MCF7 = test system: MCF7
MDA-MB-231 = test system: MDA-MB-231
MDA-MB-435 = test system: MDA-MB-435
MDA-N = test system: MDA-N
MOLT-4 = test system: MOLT-4
Malme-3M = test system: Malme-3M
NCI-H226 = test system: NCI-H226
NCI-H23 = test system: NCI-H23
NCI-H460 = test system: NCI-H460
NCI-H522 = test system: NCI-H522
NCI/ADR-RES = test system: NCI/ADR-RES
OVCAR-3 = test system: OVCAR-3
OVCAR-5 = test system: OVCAR-5
OVCAR-8 = test system: OVCAR-8
PC-3 = test system: PC-3
RPMI-8226 = test system: RPMI-8226
RXF 393 = test system: RXF 393
SF-268 = test system: SF-268
SF-295 = test system: SF-295
SF-539 = test system: SF-539
SK-MEL-2 = test system: SK-MEL-2
SK-MEL-5 = test system: SK-MEL-5
SK-OV-3 = test system: SK-OV-3
SN12C = test system: SN12C
SNB-19 = test system: SNB-19
SR = test system: SR
SW-620 = test system: SW-620
TK-10 = test system: TK-10
U-251 = test system: U-251
UACC-257 = test system: UACC-257
UACC-62 = test system: UACC-62
UO-31 = test system: UO-31
HCC 2998 = test system: HCC 2998
OVCAR-4 = test system: OVCAR-4
SK-MEL-28 = test system: SK-MEL-28
T47D = test system: T47D

Measured: GI50

C=C(C1=CC(=O)C(C)(C)O1)[C@@H]1CC=C([C@@H]2CC[C@H]3[C@@]2(C)CC[C@H]2C(C)(C)C(=O)[C@H](OC(=O)CC(C)(O)CC(=O)O)C[C@]32C)[C@H](O)O1 (some centres undefined)
inactive: 786-0 11.1 µM | A498 13 µM | A549 17.6 µM | ACHN 14 µM | BT-549 2.06 µM | CAKI-1 17.2 µM | CCRF-CEM 2.19 µM | COLO 205 12.5 µM | DU-145 16.7 µM | EKVX 15.3 µM | HCT-116 12.9 µM | HL-60 17.7 µM | HOP-62 21.1 µM | HOP-92 12.7 µM | HT-29 16.8 µM | Hs-578T 23.9 µM | IGROV-1 12.4 µM | K562 25.7 µM | KM12 14.1 µM | LOX IMVI 13.1 µM | M14 13.5 µM | MCF7 9.84 µM | MDA-MB-231 17.4 µM | MDA-MB-435 15.1 µM | MDA-N 13.9 µM | MOLT-4 4.14 µM | Malme-3M 13.4 µM | NCI-H226 16.3 µM | NCI-H23 13.6 µM | NCI-H460 15.9 µM | NCI-H522 11.4 µM | NCI/ADR-RES 19 µM | OVCAR-3 11.9 µM | OVCAR-5 14.5 µM | OVCAR-8 13.4 µM | PC-3 13.2 µM | RPMI-8226 2.48 µM | SF-268 10.9 µM | SF-295 36.4 µM | SF-539 13 µM | SK-MEL-2 12.9 µM | SK-MEL-5 12.5 µM | SK-OV-3 19.2 µM | SN12C 15.3 µM | SNB-19 25.4 µM | SR 12.6 µM | SW-620 10.7 µM | TK-10 27.4 µM | U-251 13.5 µM | UACC-257 15.2 µM | UACC-62 12.1 µM | UO-31 13.6 µM
13.3 µM: HCT-15
active: RXF 393 0.106 µM

CC12CCC(/C(=N/c3ccc([N+](=O)[O-])cc3)C1=O)C2(C)C (centres undefined)
inactive: 786-0 16.8 µM | A498 > 100 µM | A549 36.1 µM | ACHN > 100 µM | BT-549 36.6 µM | CAKI-1 19.3 µM | COLO 205 19.4 µM | DU-145 25.7 µM | EKVX 20.1 µM | HCC 2998 17.4 µM | HCT-116 19.1 µM | HOP-62 25.2 µM | HT-29 21 µM | IGROV-1 25.1 µM | K562 19 µM | KM12 19.9 µM | LOX IMVI 14.7 µM | M14 27.9 µM | MCF7 > 100 µM | MDA-MB-231 18.3 µM | MDA-MB-435 17.1 µM | Malme-3M 13.9 µM | NCI-H226 > 100 µM | NCI-H23 31.6 µM | NCI-H460 25.6 µM | NCI/ADR-RES 23.3 µM | OVCAR-3 21.4 µM | OVCAR-4 13.1 µM | OVCAR-5 51.5 µM | OVCAR-8 23 µM | PC-3 24.5 µM | RPMI-8226 20.1 µM | RXF 393 13.9 µM | SF-268 20.3 µM | SF-295 27.1 µM | SF-539 18.2 µM | SK-MEL-28 12 µM | SK-MEL-2 19 µM | SK-MEL-5 26.2 µM | SK-OV-3 28.4 µM | SNB-19 33.4 µM | SR 22.5 µM | SW-620 23.3 µM | T47D 16.3 µM | TK-10 16.9 µM | U-251 24.9 µM | UACC-257 32.4 µM | UACC-62 > 100 µM | UO-31 17.8 µM
24.6 µM: HCT-15
